Measurements reported in paper PMC8119466, “A screen of FDA-approved drugs identifies inhibitors of protein tyrosine phosphatase 4A3 (PTP4A3 or PRL-3)” (Scientific Reports, 2021).
Where a name gives a salt, the structure may show the parent alone. Read-outs that look alike come from different tables or passages of the source.

Key:
Format in all cases: biochemical
recombinant PRL-1 = biological target: T1, recombinant PRL-1 (Homo sapiens, UniProt Q93096); test: In vitro phosphatase assay (DiFMUP hydrolysis), PRL-1; also: test concentration or dose not given here
T1 construct: 6xHis (N, cleaved yes); made in house; host or cells: E. coli One Shot BL21 Star
T1 sequence (Q93096 1-173): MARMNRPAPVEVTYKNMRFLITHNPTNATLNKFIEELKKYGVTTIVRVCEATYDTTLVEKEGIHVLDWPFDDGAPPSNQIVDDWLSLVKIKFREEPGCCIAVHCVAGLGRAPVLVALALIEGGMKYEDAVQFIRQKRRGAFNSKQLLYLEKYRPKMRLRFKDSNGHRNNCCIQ

recombinant PRL-2 = biological target: T2, recombinant PRL-2 (Homo sapiens, UniProt Q12974); test: In vitro phosphatase assay (DiFMUP hydrolysis), PRL-2;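 also: PRL-2 activity read as DiFMUP hydrolysis after 20 min at room temperature with drug, enzyme first pre-reduced at 4 °C for 20 min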
T2 construct: 6xHis (N, cleaved yes); made in house; host or cells: E. coli One Shot BL21 Star
T2 sequence (Q12974 1-167): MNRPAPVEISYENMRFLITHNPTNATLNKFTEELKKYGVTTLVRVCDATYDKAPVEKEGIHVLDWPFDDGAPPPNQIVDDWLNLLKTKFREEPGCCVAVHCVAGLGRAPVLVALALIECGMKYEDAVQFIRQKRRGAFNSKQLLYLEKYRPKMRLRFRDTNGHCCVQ
Method: Briefly, protein was diluted in reaction buffer and allowed to incubate at 4 °C for 20 min to allow for full reduction of the active site. DiFMUP, drug, and protein were added, and plates were incubated for 20 min at room temperature. Fluorescence intensities were measured on a Cytation 5 plate reader (Biotek) at an EX:360 nm and EM:460 nm. […] Inhibition selectivity for PRLs over a panel of other phosphatases was determined using PhosphataseProfiler (Eurofins, Cat # PP260).

recombinant PRL-3 = biological target: T3, recombinant PRL-3 (Homo sapiens, UniProt O75365); test: In vitro phosphatase assay (DiFMUP hydrolysis), PRL-3; also: test concentration or dose not given here
T3 construct: 6xHis (N, cleaved yes); made in house; host or cells: E. coli One Shot BL21 Star
T3 sequence (O75365 whole entry): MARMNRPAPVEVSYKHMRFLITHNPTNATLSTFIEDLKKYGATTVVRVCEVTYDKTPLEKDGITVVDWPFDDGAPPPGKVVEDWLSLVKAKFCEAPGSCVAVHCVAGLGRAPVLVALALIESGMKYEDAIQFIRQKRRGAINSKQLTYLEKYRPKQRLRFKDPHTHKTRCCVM

[1] = FDA-approved drug screen, compared to DMSO
[2] = FDA-approved drug screen, activity compared to DMSO

Compound | % Phosphatase Activity (compared to DMSO) PRL-1 (recombinant PRL-1; [1]) [%] | % Phosphatase Activity (compared to DMSO) PRL-2 (recombinant PRL-2; [1]) [%] | % Phosphatase Activity (compared to DMSO) PRL-3 (recombinant PRL-3; [1]) [%] | further results
N#C[C@@H]1C[C@@H]2C[C@@H]2N1C(=O)[C@@H](N)C12CC3CC(CC(O)(C3)C1)C2 [Saxagliptin hydrate] | 93 | 80 | 86 | 
COc1ccc(O)cc1 [Mequinol] | 104 | 120 | 85 | 
CC(C)(Oc1ccc(C(=O)c2ccc(Cl)cc2)cc1)C(=O)O [Fenofibric acid] | 104 | 122 | 109 | 
COc1cc(Nc2ncc(F)c(Nc3ccc4c(n3)N(COP(=O)(O)O)C(=O)C(C)(C)O4)n2)cc(OC)c1OC [Fostamatinib (R788)] | 92 | 111 | 96 | 
O=C1CCC(N2C(=O)c3ccccc3C2=O)C(=O)N1 (stereo not drawn) [Thalidomide] |  |  |  | % Phosphatase Activity (compared to DMSO) PRL-1 (recombinant PRL-1; [2]): 97%; % Phosphatase Activity (compared to DMSO) PRL-2 (recombinant PRL-2; [2]): 91%; % Phosphatase Activity (compared to DMSO) PRL-3 (recombinant PRL-3; [2]): 79%
Cc1nc(C(=O)NCC(=O)O)c(O)c2ccc(Oc3ccccc3)cc12 [FG-4592] | 136 | 139 | 95 | 
COc1cc2c(cc1OC)C1CC(=O)C(CC(C)C)CN1CC2 (stereo not drawn) [Tetrabenazine (Xenazine)] |  |  |  | % Phosphatase Activity (compared to DMSO) PRL-1 (recombinant PRL-1; [2]): 81%; % Phosphatase Activity (compared to DMSO) PRL-2 (recombinant PRL-2; [2]): 89%; % Phosphatase Activity (compared to DMSO) PRL-3 (recombinant PRL-3; [2]): 84%
CCOC(=O)[C@H](CCc1ccccc1)N[C@H]1CS[C@H](c2cccs2)CN(CC(=O)O)C1=O [Temocapril HCl] |  |  |  | % Phosphatase Activity (compared to DMSO) PRL-1 (recombinant PRL-1; [2]): 91%; % Phosphatase Activity (compared to DMSO) PRL-2 (recombinant PRL-2; [2]): 93%; % Phosphatase Activity (compared to DMSO) PRL-3 (recombinant PRL-3; [2]): 73%
CN(C)Cc1c(C(=O)NCCOc2ccc(C(=O)NO)cc2)oc2ccccc12 [PCI-24781 (Abexinostat)] | 100 | 96 | 86 | 
C[C@]12Cc3c[nH]nc3C[C@@H]1CC[C@@H]1[C@@H]2CC[C@@]2(C)[C@H]1CC[C@]2(C)O [Stanozolol] |  |  |  | % Phosphatase Activity (compared to DMSO) PRL-1 (recombinant PRL-1): 89%; % Phosphatase Activity (compared to DMSO) PRL-2 (recombinant PRL-2): 84%; % Phosphatase Activity (compared to DMSO) PRL-3 (recombinant PRL-3): 93%
GHRP-2 | 98 | 102 | 100 | 
CN(CCOc1ccc(CC2SC(=O)NC2=O)cc1)c1ccccn1.Cl (stereo not drawn) [Rosiglitazone HCl] | 103 | 116 | 79 | 
C[C@@H]1CCN(C(=O)CC#N)C[C@@H]1N(C)c1ncnc2[nH]ccc12 [Tofacitinib (CP-690550,Tasocitinib)] |  |  |  | % Phosphatase Activity (compared to DMSO) PRL-1 (recombinant PRL-1; [2]): 117%; % Phosphatase Activity (compared to DMSO) PRL-2 (recombinant PRL-2; [2]): 114%; % Phosphatase Activity (compared to DMSO) PRL-3 (recombinant PRL-3; [2]): 96%
C[C@@H](O)[C@@H]1NC(=O)[C@H](CCCCN)NC(=O)[C@@H](Cc2c[nH]c3ccccc23)NC(=O)[C@H](Cc2ccccc2)NC(=O)[C@@H](NC(=O)[C@H](N)Cc2ccccc2)CSSC[C@@H](C(=O)N[C@H](CO)[C@@H](C)O)NC1=O [Octreotide Acetate] | 99 | 90 | 93 | 
Oc1ccc(O)cc1 [Hydroquinone] |  |  |  | % Phosphatase Activity (compared to DMSO) PRL-1 (recombinant PRL-1): 90%; % Phosphatase Activity (compared to DMSO) PRL-2 (recombinant PRL-2): 91%; % Phosphatase Activity (compared to DMSO) PRL-3 (recombinant PRL-3): 70%
C1=N/C2=N/c3ccc(OCCN4CCCC4)c(c3)COC/C=C/COCc3cccc(c3)C(=C1)N2 [Pacritinib (SB1518)] | 95 | 98 | 78 | 
NCCCC[C@H](N[C@@H](CCc1ccccc1)C(=O)O)C(=O)N1CCC[C@H]1C(=O)O [Lisinopril] | 100 | 86 | 93 | 
O=c1sn(-c2cccc3ccccc23)c(=O)n1Cc1ccccc1 [Tideglusib] |  |  |  | % Phosphatase Activity (compared to DMSO) PRL-1 (recombinant PRL-1; [2]): 107%; % Phosphatase Activity (compared to DMSO) PRL-2 (recombinant PRL-2; [2]): 120%; % Phosphatase Activity (compared to DMSO) PRL-3 (recombinant PRL-3; [2]): 98%
O.O.O.O.O=C([O-])CC(O)(CC(=O)[O-])C(=O)[O-].[Li+].[Li+].[Li+] [Citric acid trilithium salt tetrahydrate] | 93 | 92 | 89 | 

Compound | % Phosphatase Activity (compared to DMSO) PRL-1 (recombinant PRL-1; [1]) [%] | % Phosphatase Activity (compared to DMSO) PRL-2 (recombinant PRL-2; [1]) [%] | % Phosphatase Activity (compared to DMSO) PRL-3 (recombinant PRL-3; [1]) [%] | further results
CC1(C)S[C@@H]2[C@H](NC(=O)[C@H](N)c3ccccc3)C(=O)N2[C@H]1C(=O)O [Ampicillin sodium] | 120 | 127 | 92 | 
CC[C@H]1OC(=O)[C@H](C)[C@@H](O[C@H]2C[C@@](C)(OC)[C@@H](O)[C@H](C)O2)[C@H](C)[C@@H](O[C@@H]2O[C@H](C)C[C@H](N(C)C)[C@H]2O)[C@](C)(O)C[C@@H](C)CN(C)[C@H](C)[C@@H](O)[C@]1(C)O [Azithromycin] | 94 | 94 | 101 | 
O=C([O-])C(O)[C@H](O)[C@@H](O)[C@H](O)[C@H](O)CO.O=C([O-])C(O)[C@H](O)[C@@H](O)[C@H](O)[C@H](O)CO.[Ca+2] (stereo partly drawn) [Calcium Gluceptate] | 114 | 104 | 107 | 
CCCCCCCCCCC[C@@H](C[C@@H]1OC(=O)[C@H]1CCCCCC)OC(=O)[C@H](CC(C)C)NC=O [Orlistat] | 113 | 91 | 79 | 
C[C@]1(Cn2ccnn2)[C@H](C(=O)O)N2C(=O)C[C@H]2S1(=O)=O [Tazobactam] |  |  |  | % Phosphatase Activity (compared to DMSO) PRL-1 (recombinant PRL-1; [2]): 102%; % Phosphatase Activity (compared to DMSO) PRL-2 (recombinant PRL-2; [2]): 103%; % Phosphatase Activity (compared to DMSO) PRL-3 (recombinant PRL-3; [2]): 86%
CN1CCOC(c2ccccc2)c2ccccc2C1 (stereo not drawn) [Nefopam HCl] | 108 | 87 | 101 | 
O=C(C[S+]([O-])Cc1ccco1)NC/C=C\COc1cc(CN2CCCCC2)ccn1 (stereo not drawn) [Lafutidine] | 114 | 115 | 83 | 
CC(C)(C)C(=O)Oc1ccc(S(=O)(=O)Nc2ccccc2C(=O)NCC(=O)O)cc1 [Sivelestat sodium] |  |  |  | % Phosphatase Activity (compared to DMSO) PRL-1 (recombinant PRL-1; [2]): 89%; % Phosphatase Activity (compared to DMSO) PRL-2 (recombinant PRL-2; [2]): 86%; % Phosphatase Activity (compared to DMSO) PRL-3 (recombinant PRL-3; [2]): 75%
CCC(C)(C)c1ccc(CC(C)CN2C[C@@H](C)O[C@@H](C)C2)cc1 (stereo partly drawn) [Amorolfine HCl] | 102 | 94 | 78 | 
O=C1CC2(CCCC2)CC(=O)N1CCCCN1CCN(c2ncccn2)CC1 [Buspirone HCl] | 89 | 91 | 75 | 
CC(C)(C)c1ccc(C(O)CCCN2CCC(C(O)(c3ccccc3)c3ccccc3)CC2)cc1 (stereo not drawn) [Terfenadine] |  |  |  | % Phosphatase Activity (compared to DMSO) PRL-1 (recombinant PRL-1; [2]): 96%; % Phosphatase Activity (compared to DMSO) PRL-2 (recombinant PRL-2; [2]): 100%; % Phosphatase Activity (compared to DMSO) PRL-3 (recombinant PRL-3; [2]): 91%
CC1Cc2ccccc2N1NC(=O)c1ccc(Cl)c(S(N)(=O)=O)c1 (stereo not drawn) [Indapamide] | 98 | 105 | 117 | 
Cc1cc(C(C)(C)C)cc(C)c1CC1=NCCN1 [Xylometazoline HCl] |  |  |  | % Phosphatase Activity (compared to DMSO) PRL-1 (recombinant PRL-1; [2]): 98%; % Phosphatase Activity (compared to DMSO) PRL-2 (recombinant PRL-2; [2]): 117%; % Phosphatase Activity (compared to DMSO) PRL-3 (recombinant PRL-3; [2]): 88%
CC(=O)NS(=O)(=O)c1ccc(N)cc1 [Sulfacetamide Sodium] |  |  |  | % Phosphatase Activity (compared to DMSO) PRL-1 (recombinant PRL-1; [2]): 91%; % Phosphatase Activity (compared to DMSO) PRL-2 (recombinant PRL-2; [2]): 109%; % Phosphatase Activity (compared to DMSO) PRL-3 (recombinant PRL-3; [2]): 74%
CC1CCc2cc(F)cc3c(=O)c(C(=O)O)cn1c23 (stereo not drawn) [Flumequine] | 122 | 112 | 96 | 
CC1=C(C(=O)O)N2C(=O)[C@@H](NC(=O)[C@H](N)C3=CCC=CC3)[C@H]2SC1 [Cefradine] | 95 | 76 | 102 | 
CN(C)CCC=C1c2ccccc2C=Cc2ccccc21 [Cyclobenzaprine HCl] |  |  |  | % Phosphatase Activity (compared to DMSO) PRL-1 (recombinant PRL-1): 104%; % Phosphatase Activity (compared to DMSO) PRL-2 (recombinant PRL-2): 103%; % Phosphatase Activity (compared to DMSO) PRL-3 (recombinant PRL-3): 85%
C[C@]12CC[C@@H]3c4ccc(OC(=O)c5ccccc5)cc4CC[C@H]3[C@@H]1CC[C@@H]2O [Estradiol Benzoate] | 110 | 117 | 91 | 
CCC(=O)O[C@@H](O[P@](=O)(CCCCc1ccccc1)CC(=O)N1C[C@H](C2CCCCC2)C[C@H]1C(=O)[O-])C(C)C.[Na+] [Fosinopril Sodium] | 91 | 69 | 80 | 
